# Key:
# [1] = system: red blood cells (RBCs); assay: In vitro hemolytic test; type: cell-based; conditions: artemether 2 mg/mL in 5% DMSO; 4% v/v rat RBCs, 37 °C, 1 h; positive control Triton X 100
# Experimental: This test was performed to examine the hemolytic potential of artemether-loaded zein nanoparticles and the formulation ingredients on red blood cells (RBCs). Freshly collected rat blood was centrifuged at 1500× g for 10 min at 4 °C. The plasma was collected for other purpose. The remaining RBCs were washed with PBS and then centrifuged at 1500× g at 4 °C for 5 min. After two repeats of such procedures, the RBCs were diluted 25 times with PBS to make a 4% v/v RBCs dispersion. Such RBCs were kept at 4 °C and used within 24 h. The impact of artemether-loaded zein nanoparticles containing 2 mg/mL artemether, raw artemether in 5% v/v aqueous DMSO solution (2 mg/mL), 5% v/v aqueous DMSO solution, sodium caseinate (7.5 mg/mL) solution, artemether (2 mg/mL) together with sodium caseinate (7.5 mg/mL) solution was assessed. PBS and 1% v/v Triton-X 100 solution were assessed by adding 1 mL of the test solutions each to 1 mL of the 4% v/v RBCs dispersion. Each sample was incubated with the RBCs at 37 °C for 1 h and then centrifuged at 1500× g for 10 min. The absorbance of the supernatant was taken at 550 nm with U-2900 UV spectrophotometer (Hitachi, Japan). Percentage haemolysis was calculated as follows:(3) Hemolysis (%)=AbsorbanceTest group−AbsorbancePBS/AbsorbanceTriton−X100−AbsorbancePBS×100%
# [2] = In vitro release study (sample and separate method); type: physicochemical; conditions: PBS pH 7.4, 37 °C, sink conditions; n = 3
# Experimental: The dissolution profile of artemether-loaded zein nanoparticles was studied by the “sample and separate” method. In brief, artemether-loaded zein nanoparticle powders containing 6 mg artemether were put in 100 mL phosphate buffered saline (PBS) of pH 7.4. The study was performed under sink conditions at 37 ± 0.5 °C with 150 rpm stirring. The beaker was covered with parafilm to minimize water loss via evaporation. In total, 1 mL samples were withdrawn at selected time points (1/12, 1/6, 1/4, 1/2, 1, 2, 3, 4, 5, 6, 24 h). Samples were centrifuged at 10,800 rpm for 30 min and the supernatants were analyzed by HPLC in the same way as drug content. Then, 1 mL PBS at 37 °C was added after each sampling to maintain sink condition. The experiment was repeated 3 times to ensure consistency. Raw artemether was used as control. Mean values and standard deviations were subsequently calculated.
# [3] = cited from earlier work
# [4] = set-up: method as in PMID 21914160; conditions: intravenous artesunate, clinical practice; cited from earlier work
compound,measurement,setting,value
CO[C@H]1O[C@@H]2O[C@@]3(C)CC[C@H]4[C@H](C)CC[C@@H]([C@H]1C)[C@@]24OO3 [artemether],hemolytic effect (in words),[1],destroyed RBCs as much as the positive control
same,artemether released / dissolved within 5 h,[2],almost all
Zein,isoelectric point (pI),[3],6.2
C[C@H]1[C@H](OC(=O)CCC(=O)O)O[C@@H]2O[C@@]3(C)CC[C@H]4[C@H](C)CC[C@@H]1[C@@]24OO3 [artesunate],half-life,[4],less than 1 h
sodium caseinate,isoelectric point (pI),[3],4.5
